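Step 1: Grow cells in 96-well plates. Step 2: Expose to compound for 48 hours at 5 concentrations. Step 3: Interpolate endpoints linearly; if unreached, use highest concentration. GI50 = concentration required for 50% inhibition of growth.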 Calls of active or inactive are those of the source. Cut-off read from the data, not from the text of the source: active = GI50 up to about 1.1 µM and inactive = higher.
Experiments:
Assay in all cases: NCI-60 cell line screen, 48 h
[1] = tested on: UACC-62
[2] = tested on: KM12
[3] = tested on: MDA-N
[4] = tested on: SK-MEL-2
[5] = tested on: U-251
[6] = tested on: HOP-62
[7] = tested on: NCI-H23
[8] = tested on: UO-31
[9] = tested on: SF-268
[10] = tested on: TK-10
[11] = tested on: A549
[12] = tested on: SNB-19
[13] = tested on: OVCAR-3
[14] = tested on: NCI-H522
[15] = tested on: SK-OV-3
[16] = tested on: MOLT-4
[17] = tested on: CCRF-CEM
[18] = tested on: 786-0
[19] = tested on: OVCAR-4

Row | SMILES | GI50 [1] | GI50 [2] | GI50 [3] | GI50 [4] | GI50 [5] | GI50 [6] | GI50 [7] | GI50 [8] | GI50 [9] | GI50 [10] | GI50 [11] | GI50 [12] | GI50 [13] | GI50 [14] | GI50 [15] | GI50 [16] | GI50 [17] | GI50 [18] | GI50 [19]
1 | NC(=O)c1ccc(C(=O)Nc2ccc([As](=O)(O)O)cc2)cc1 | > 100 µM (inactive) | > 100 µM (inactive) | > 100 µM (inactive) | > 100 µM (inactive) | > 100 µM (inactive) | > 100 µM (inactive) | > 100 µM (inactive) | > 100 µM (inactive) | > 100 µM (inactive) | > 100 µM (inactive) | > 100 µM (inactive) | > 100 µM (inactive) | > 100 µM (inactive) | > 100 µM (inactive) | > 100 µM (inactive) | > 100 µM (inactive) | > 100 µM (inactive) | > 100 µM (inactive) | > 100 µM (inactive)
2 | COC(=O)C1(Cc2ccccc2C)Cc2ccc(C)cc2C1=O (stereo unspecified) | 40.6 µM (inactive) | 31.2 µM (inactive) | 29.9 µM (inactive) | 21.2 µM (inactive) | 39 µM (inactive) | 56.4 µM (inactive) | 26.4 µM (inactive) | 36.6 µM (inactive) | 69.7 µM (inactive) | 15.5 µM (inactive) | 33.2 µM (inactive) | 64.6 µM (inactive) | 27.7 µM (inactive) | 17.3 µM (inactive) | 55.2 µM (inactive) | 23.6 µM (inactive) | 48 µM (inactive) | 45.6 µM (inactive) | 36.6 µM (inactive)
3 | C=C1C(=O)O[C@@H]2C[C@@H](C)[C@@H]3[C@@H](OC4OC(COC(C)=O)C(O)C(O)C4O)CC(=O)[C@@]3(C)C[C@H]12 (stereo partly specified) | 1.55 µM (inactive) | 11 µM (inactive) | 1.66 µM (inactive) | 7.5 µM (inactive) | 7.19 µM (inactive) | 17.3 µM (inactive) | 12.5 µM (inactive) | 1.83 µM (inactive) | 9.77 µM (inactive) | 1.68 µM (inactive) | 8.67 µM (inactive) | 20.2 µM (inactive) | 1.1 µM (active) | 0.127 µM (active) | 19.1 µM (inactive) | 1.94 µM (inactive) | 0.238 µM (active) | 0.396 µM (active) | 3.31 µM (inactive)
4 | COc1cc(OC)c(/C=C\c2ccnc3ccccc23)c(OC)c1 | 2.49 µM (inactive) | 0.736 µM (active) | 0.329 µM (active) | 3.88 µM (inactive) | 3.81 µM (inactive) | 5.19 µM (inactive) | 5.61 µM (inactive) | 0.859 µM (active) | 5.97 µM (inactive) | 4.61 µM (inactive) | 4.13 µM (inactive) | 5.5 µM (inactive) | 2.92 µM (inactive) | 3.76 µM (inactive) | 6.44 µM (inactive) | 3.56 µM (inactive) | 1.7 µM (inactive) | 5.53 µM (inactive) | 0.349 µM (active)
5 | Cc1c2ncccc2c(C)c2c1[nH]c1ccc(O)cc12 | 10.2 µM (inactive) | 3.6 µM (inactive) | 4.93 µM (inactive) | 18.5 µM (inactive) | 2.4 µM (inactive) | 1.86 µM (inactive) | 6.58 µM (inactive) | 3.35 µM (inactive) | 4.94 µM (inactive) | 12.8 µM (inactive) | 2.56 µM (inactive) | 6.61 µM (inactive) | 6.28 µM (inactive) | 6.22 µM (inactive) | 3.38 µM (inactive) | 0.478 µM (active) | 1.33 µM (inactive) | 2.91 µM (inactive) | 4.15 µM (inactive)
6 | CNC(=O)C1(N)c2ccccc2C=Cc2ccccc21 | > 100 µM (inactive) | > 100 µM (inactive) | > 100 µM (inactive) | > 100 µM (inactive) | > 100 µM (inactive) | > 100 µM (inactive) | > 100 µM (inactive) | > 100 µM (inactive) | > 100 µM (inactive) | > 100 µM (inactive) | > 100 µM (inactive) | > 100 µM (inactive) | > 100 µM (inactive) | > 100 µM (inactive) | > 100 µM (inactive) | > 100 µM (inactive) | > 100 µM (inactive) | > 100 µM (inactive) | > 100 µM (inactive)
7 | CCOC(=O)C(NCc1cccc(C(F)(F)F)c1)(NC(=O)c1ccccc1)C(F)(F)F (stereo unspecified) | 13.9 µM (inactive) | 28.1 µM (inactive) | 34 µM (inactive) | 21.4 µM (inactive) | 34 µM (inactive) | 37.9 µM (inactive) | 21.8 µM (inactive) | 18.1 µM (inactive) | 47.9 µM (inactive) | 30.1 µM (inactive) | 22.9 µM (inactive) | 71.9 µM (inactive) | 22.8 µM (inactive) | 17.6 µM (inactive) | 78.3 µM (inactive) | 26.1 µM (inactive) | > 100 µM (inactive) | 28.5 µM (inactive) | 21.6 µM (inactive)
8 | O=C(/C=C/c1ccc(O)c(O)c1)c1cc(O)cc(O)c1 | 12.9 µM (inactive) |  | 6 µM (inactive) | 13 µM (inactive) | 10.8 µM (inactive) | 21.4 µM (inactive) | 12.3 µM (inactive) | 10.6 µM (inactive) | 9.79 µM (inactive) | 15.3 µM (inactive) | > 100 µM (inactive) | 14.5 µM (inactive) | 13.2 µM (inactive) | 1.71 µM (inactive) | 13.9 µM (inactive) | 4.91 µM (inactive) | 2 µM (inactive) | 13.7 µM (inactive) | 10.4 µM (inactive)
9 | CC(OP(=O)(O)O)C(N)C(=O)O (stereo unspecified) | > 100 µM (inactive) | > 100 µM (inactive) | > 100 µM (inactive) | > 100 µM (inactive) | > 100 µM (inactive) | > 100 µM (inactive) | > 100 µM (inactive) | > 100 µM (inactive) | > 100 µM (inactive) | > 100 µM (inactive) | > 100 µM (inactive) | > 100 µM (inactive) | > 100 µM (inactive) | > 100 µM (inactive) | > 100 µM (inactive) | > 100 µM (inactive) | > 100 µM (inactive) | > 100 µM (inactive) | > 100 µM (inactive)
10 | O=C1CS(=O)(=O)C(c2cccc(Oc3ccccc3)c2)N1c1cccc(Cl)c1Cl (stereo unspecified) | 13.5 µM (inactive) | 26.7 µM (inactive) | 19.6 µM (inactive) | 19.5 µM (inactive) | 20 µM (inactive) | 40.6 µM (inactive) |  | 29.5 µM (inactive) | 21.5 µM (inactive) | 25.3 µM (inactive) | > 100 µM (inactive) | 39.5 µM (inactive) | 21.5 µM (inactive) | 18 µM (inactive) | 67 µM (inactive) | 20.2 µM (inactive) | 10.7 µM (inactive) | 15 µM (inactive) | 20.4 µM (inactive)
11 | O=CC(O)C(O)C(O)C1CNC(=S)O1 (stereo unspecified) | > 100 µM (inactive) | > 100 µM (inactive) | > 100 µM (inactive) | > 100 µM (inactive) | > 100 µM (inactive) | > 100 µM (inactive) | > 100 µM (inactive) | > 100 µM (inactive) | > 100 µM (inactive) | > 100 µM (inactive) | > 100 µM (inactive) |  | > 100 µM (inactive) | > 100 µM (inactive) | > 100 µM (inactive) | > 100 µM (inactive) | > 100 µM (inactive) | > 100 µM (inactive) | > 100 µM (inactive)
